Entries after “also recorded” stand apart in the source; their conditions may differ. No end group written: not given here.
Key:
CGRP^+ pain nerves = assay: Bilateral ACL-injury mouse model: knee nerve innervation and CGRP+ pain nerves; type: in vivo
From the text: Some of the studies reported below involved a murine model of animals which were subjected to trauma by injuring an ACL (as an exemplar of injury to any of the four knee ligaments). Without wishing to be bound by theory, it is believed that injury to the ACL changes the mechanical loading on the joint, promoting imbalanced metabolism in articular cartilage, and promoting the development of post-traumatic OA, or “PTOA.” Animals were divided into four cohorts: the first group, the controls, were not subjected to trauma, the second group underwent bilateral ACL injury, but no further treatment, the third group underwent bilateral ACL injury, and was then administered saline solution at days 3, 10 and 17 post-injury, and the fourth group underwent bilateral ACL injury, and was then administered GsMTx4 peptide at days 3, 10 and 17 post-injury. The animals were evaluated by gait analysis, a cell vulnerability assay, and a histological evaluation/immunofluorescence assay. In one aspect, the assays compared the expression of Piezo1 and Piezo2 in chondrocytes from injured joints, from uninjured controls, and from injured joints injured and then treated with GsMTx4 and from joints that were injured and then treated only with saline solution. The study also looked at calcitonin gene-related peptide (“CGRP”)-containing (“CGRP^+”) nerve endings. CGRP^+ nerves have been identified as principal coordinators of thermal and mechanical sensitivity in various pain models. See, e.g., Powell, et al., Nat Commun 12, 5812 (2021); doi.org/10.1038/s41467-021-26100-6.

C57Bl/6 male mice = assay: Massive rotator cuff tear (RCT) mouse model: humeral head cartilage histology; type: in vivo
Procedure: A massive rotator cuff tear (RCT) model was performed by surgical ligation of the supraspinatus and infraspinatus tendons of the right shoulder of 14-week-old C57Bl/6 male and female mice through a deltoid splitting approach. Mice were anesthetized with 2% isoflurane gas mixed with oxygen. A single dose of buprenorphine SR (0.5 mg/kg) was injected subcutaneously at the nape. The right shoulder was prepped using a chemical hair removal agent, followed by betadine solution for 2 minutes and a rinse with 70% ethanol. The remaining steps were performed under sterile technique. A #11 scalpel blade was used to sharply incise the skin and subcutaneous tissues in a longitudinal incision over the palpable border of the lateral shoulder. The deltoid fascia and muscle were sharply incised in line with the skin incision with care not to dissect distally along the humerus to protect the axillary nerve. A pair of forceps were then used to grasp the proximal humerus and pull laterally to place the glenohumeral joint on gentle tension. A 25G needle was passed under the supraspinatus and infraspinatus tendons. […] Animals were monitored daily for 3 days post-operatively, and no adverse events were noted. […]
Humeri were harvested and chondrocyte mechano-vulnerability was quantified before and after 2 mJ impact according to methods above. […]

[1] = ACL-I mice, GsMTx4 post-injury, versus saline-treated ACL-I mice

Substance: GsMTx4 (GCLEFWWKCNPNDDKCCRPKLKCSKLFKLCNFSF-NH2; ends and bridges not checked; listed as Grammostola spatulata)
- CGRP^+ pain nerves / CGRP level in injured knee (CGRP^+ pain nerves; [1]): decreased CGRP^+ pain nerves; also recorded: lower levels of CGRP present
- nerve innervation in the knee (CGRP^+ pain nerves; [1]): decreased nerve innervation in the knee
- pain nerves in the meniscus of the injured joints (CGRP^+ pain nerves; bilateral ACL injury, versus no treatment or saline): reduced the increase of pain nerves in the meniscus
- average humeral head cartilage thickness (C57Bl/6 male mice; RC ligation, subcutaneous twice weekly, 14 weeks post-operatively, GsMTx4 versus saline or contralateral control joint): no difference in average humeral head cartilage thickness
- cartilage degeneration of shoulder (C57Bl/6 male mice; RCT, treated post-injury, versus animals not treated post-injury with GsMTx4): reduced cartilage degeneration

Reference: US20250288645A1, “USE OF GsMTx4 AND GsMTx4 CONJUGATES TO IMPROVE RECOVERY FROM JOINT INJURY” (priority 2023, published 2025)
